These results are taken from US8772480B2, “Inhibitors of PI3 kinase and/or mTOR” (priority 2009, dated 2014).

pIC50: −log10 of the molar value.

Broadly, the pIC50 is the negative decadic logarithm of the IC50, by convention in mol/L.

The first experiment relates to phosphorylation of Akt at Serine 473 in U87 MG cells. Put plainly: cells. The note with it: Homo sapiens, U-87 MG, 2 h, read-out: U87Cell IC50.
With `Cc1nc(N)nc(-c2cccnc2Nc2cnc(Cl)c(NS(=O)(=O)N3CCOCC3)c2)n1` [Example 366, N-(5-(3-(4-Amino-6-Methyl-1,3,5-Triazin-2-yl)Pyridin-2-Ylamino)-2-Chloropyridin-3-yl)Morpholine-4-Sulfonamide], the negative logarithm of the IC50 (pIC50) is 7.40. `COc1ccc(NCc2cnc(Nc3ccc(OC)nc3)c(-c3nc(C)nc4[nH]cnc34)c2)cc1` [Example 77, 5-((4-methoxyphenylamino)methyl)-N-(6-methoxypyridin-3-yl)-3-(2-methyl-9H-purin-6-yl)pyridin-2-amine]: the pIC50 was 6.78. As for `Cc1nc(N)nc(-c2cccnc2Nc2cnc(Cl)c(N)c2)n1` [Example 265, N5-(3-(4-Amino-6-Methyl-1,3,5-Triazin-2-yl)Pyridin-2-yl)-2-Chloropyridine-3,5-Diamine], the negative-log IC50 (pIC50) is 6.46. On the same count and under the same terms, as for `Cc1nc(N)nc(-c2cccnc2Nc2cnc(Cl)c(NS(=O)(=O)N(C)C(C)C)c2)n1` [Example 367, N-(5-(3-(4-Amino-6-Methyl-1,3,5-Triazin-2-yl)Pyridin-2-Ylamino)-2-Chloropyridin-3-yl)-N-Isopropyl-N-Methylaminosulfamide], the figure is 6.61.

Staying with this experiment, now noted: Homo sapiens, U-87 MG, 2 h, read-out: U87Cell IC50, pAkt (Ser 473), U87 MG cells, two hours with compound.
Regarding `Cc1nc(N)nc(-c2cc(C3CCOCC3)cnc2Nc2cnc(Cl)c(NS(C)(=O)=O)c2)n1` [Example 328, N-(5-(3-(4-Amino-6-Methyl-1,3,5-Triazin-2-yl)-5-(Tetrahydro-2H-Pyran-4-yl)Pyridin-2-Ylamino)-2-Chloropyridin-3-yl)Methanesulfonamide], the negative-log IC50 (pIC50) was 9.00. On the same count and under the same terms, with `COc1ncc(Nc2ncc(C(=O)N3CCN(S(C)(=O)=O)CC3)cc2-c2nc(C)nc(N)n2)cc1F` [Example 152, 4-(2-((5-Fluoro-6-Methoxy-3-Pyridinyl)Amino)-5-((4-(Methylsulfonyl)-1-Piperazinyl)Carbonyl)-3-Pyridinyl)-6-Methyl-1,3,5-Triazin-2-Amine] the figure was 7.43; with `Cc1nc(N)nc(-c2cc(CN3CCN(S(C)(=O)=O)CC3)cnc2Nc2cc(F)cc3[nH]ncc23)n1` [Example 245, N-(3-(4-Amino-6-Methyl-1,3,5-Triazin-2-yl)-5-((4-(Methylsulfonyl)Piperazin-1-yl)Methyl)Pyridin-2-yl)-6-Fluoro-1H-Indazol-4-Amine], 7.72. Still for that read-out and setting: as for `COc1ncc(Nc2ncc(C3=CCOCC3)cc2-c2nc(C)nc(N)n2)cc1F` [Example 343, 4-(5-(3,6-Dihydro-2H-Pyran-4-yl)-2-(5-Fluoro-6-Methoxypyridin-3-Ylamino)Pyridin-3-yl)-6-Methyl-1,3,5-Triazin-2-Amine], the figure is 7.82; as for `CC(=O)Nc1ccc(Nc2ncccc2-c2nc(C)nc3[nH]cnc23)cc1` [Example 102, N-(4-(3-(2-methyl-9H-purin-6-yl)pyridin-2-ylamino)phenyl)acetamide], 7.06; as for `COc1ccc(Nc2ncc(Cl)cc2-c2nc(C)nc3[nH]cnc23)cn1` [Example 127, 5-chloro-N-(6-methoxypyridin-3-yl)-3-(2-methyl-9H-purin-6-yl)pyridin-2-amine], 6.60.

As to `COc1ncc(Nc2ncc(C(N3CCN(S(C)(=O)=O)CC3)C(F)(F)F)cc2-c2nc(C)nc(N)n2)cc1F` (stereo not drawn) [Example 325, 4-(2-(5-Fluoro-6-Methoxypyridin-3-Ylamino)-5-(2,2,2-Trifluoro-1-(4-(Methylsulfonyl)Piperazin-1-yl)Ethyl)Pyridin-3-yl)-6-Methyl-1,3,5-Triazin-2-Amine], the pIC50 is 7.59. Still for that read-out and setting: with `COc1ncc(Nc2ncc([C@@H](C)N3CCN(S(C)(=O)=O)CC3)cc2-c2nc(C)nc(N)n2)cc1F` [Example 148, (R)-4-(2-(5-Fluoro-6-Methoxypyridin-3-Ylamino)-5-(1-(4-(Methylsulfonyl)Piperazin-1-yl)Ethyl)Pyridin-3-yl)-6-Methyl-1,3,5-Triazin-2-Amine] the figure was 8.30; with `Cc1nc(-c2cc(Cc3ccc(S(C)(=O)=O)cc3)cnc2Nc2cccc3[nH]ncc23)c2nc[nH]c2n1` [Example 104, N-(3-(2-methyl-9H-purin-6-yl)-5-(4-(methylsulfonyl)benzyl)pyridin-2-yl)-1H-indazol-4-amine], 6.89. On the same count and under the same terms, with `Cc1nc(N)cc(-c2cc([C@H](C)N3CCOCC3)cnc2Nc2cnc(Cl)c(NS(=O)(=O)N(C)C)c2)n1` [Example 382, (S—)N-(2-Chloro-5-(3-(6-Amino-2-Methylpyrimidin-4-yl)-5-(1-Morpholinoethyl)Pyridin-2-Ylamino)Pyridin-3-yl)-N,N-Dimethylaminosulfamide] the figure was 7.64; with `CCOc1ccc(Nc2ncccc2-c2nc(C)nc(N)n2)cn1` [Example 49, 4-(2-(6-ethoxypyridin-3-ylamino)pyridin-3-yl)-6-methyl-1,3,5-triazin-2-amine], 5.94. With `Cc1nc(N)nc(-c2cc(C(C)(C)O)cnc2Nc2cncc(S(C)(=O)=O)c2)n1` [Example 355, 2-(5-(4-Amino-6-Methyl-1,3,5-Triazin-2-yl)-6-(5-(Methylsulfonyl)Pyridin-3-Ylamino)Pyridin-3-yl)Propan-2-ol], the negative logarithm of the IC50 (pIC50) is 5.94. Regarding `CC(=O)Nc1cc(-c2cnccc2Nc2cccc3[nH]ccc23)nc(C)n1` [Example 108, N-(6-(4-(1H-indol-4-ylamino)pyridin-3-yl)-2-methylpyrimidin-4-yl)acetamide], the negative logarithm of the IC50 (pIC50) is 5.92.

On to `COc1cc(Nc2ncccc2-c2nc(C)nc(N)n2)ccc1F` [Example 167, 4-(2-(4-Fluoro-3-Methoxyphenylamino)Pyridin-3-yl)-6-Methyl-1,3,5-Triazin-2-Amine], for which the negative logarithm of the IC50 (pIC50) is 5.93. Same read-out and setting: with `COc1cccc(Nc2cnc(Nc3ccc(OC)nc3)c(-c3nc(C)nc4[nH]cnc34)c2)c1` [Example 96, N5-(3-methoxyphenyl)-N2-(6-methoxypyridin-3-yl)-3-(2-methyl-9H-purin-6-yl)pyridine-2,5-diamine] the figure was 6.39. On the same count and under the same terms, with `Cc1nc(N)cc(-c2cc(C(C)N3CCOCC3)cnc2Nc2cnc(Cl)c(NS(=O)(=O)N(C)C)c2)n1` (stereo not drawn) [Example 379, N-(2-Chloro-5-(3-(6-Amino-2-Methylpyrimidin-4-yl)-5-(1-Morpholinoethyl)Pyridin-2-Ylamino)Pyridin-3-yl)-N,N-Dimethylaminosulfamide] the figure was 7.34. On to `Cc1nc(N)nc(-c2cccnc2Nc2ccc(NC(=O)Nc3ccccc3)nc2)n1` [Example 190, 1-(5-(3-(4-Amino-6-Methyl-1,3,5-Triazin-2-yl)Pyridin-2-Ylamino)Pyridin-2-yl)-3-Phenylurea], for which the pIC50 is 6.05. On the same count and under the same terms, as for `COc1ncc(Nc2ncc(C(C)N3CCN(S(C)(=O)=O)CC3)cc2-c2nc(C)nc(N)n2)cc1F` (stereo not drawn) [Example 143, 4-(2-(5-fluoro-6-methoxypyridin-3-ylamino)-5-(1-(4-(methylsulfonyl)piperazin-1-yl)ethyl)pyridin-3-yl)-6-methyl-1,3,5-triazin-2-amine], the figure is 8.22.

Take `Cc1nc(N)nc(-c2cccnc2Nc2ccc3oc(C)nc3c2)n1` [Example 165, N-(3-(4-Amino-6-Methyl-1,3,5-Triazin-2-yl)Pyridin-2-yl)-2-Methylbenzo[D]Oxazol-5-Amine]: the pIC50 was 5.59. Take `COc1ccc(Nc2ncc(CNc3cccnc3)cc2-c2nc(C)nc3[nH]cnc23)cn1` [Example 79, N-(6-methoxypyridin-3-yl)-3-(2-methyl-9H-purin-6-yl)-5-((pyridin-3-ylamino)methyl)pyridin-2-amine]: the negative-log IC50 (pIC50) is 7.14. Same read-out and setting: as for `COc1ncc(Nc2ncc([C@@H](C)N3CCN(S(C)(=O)=O)C[C@H]3C)cc2-c2nc(C)nc(N)n2)cc1F` [Example 360, 4-(2-(5-Fluoro-6-Methoxypyridin-3-Ylamino)-5-((R)-1-((R)-2-Methyl-4-(Methylsulfonyl)Piperazin-1-yl)Ethyl)Pyridin-3-yl)-6-Methyl-1,3,5-Triazin-2-Amine], the figure is 7.92; as for `CC(=O)Nc1ccc(Nc2ncc(Cl)cc2-c2nc(C)nc(N)n2)cn1` [Example 193, N-(5-(3-(4-Amino-6-Methyl-1,3,5-Triazin-2-yl)-5-Chloropyridin-2-Ylamino)Pyridin-2-yl)Acetamide], 7.00; as for `CC(=O)Nc1ccc(Nc2ncc(Cc3ccc(S(C)(=O)=O)cc3)cc2-c2nc(C)nc3[nH]cnc23)cn1` [Example 105, N-(5-(3-(2-methyl-9H-purin-6-yl)-5-(4-(methylsulfonyl)benzyl)pyridin-2-ylamino)pyridin-2-yl)acetamide], 6.80. For the compound `COc1ncc(Nc2ncc(F)cc2-c2nc(C)nc(N)n2)cc1F` [Example 185, 4-(5-Fluoro-2-(5-Fluoro-6-Methoxypyridin-3-Ylamino)Pyridin-3-yl)-6-Methyl-1,3,5-Triazin-2-Amine], the pIC50 was 6.70. Still for that read-out and setting: as for `COc1ccc(Nc2nc(NC3CCCC3)ncc2-c2nc(C)nc(N)n2)cn1` [Example 126, 5-(4-amino-6-methyl-1,3,5-triazin-2-yl)-N2-cyclopentyl-N4-(6-methoxypyridin-3-yl)pyrimidine-2,4-diamine], the figure is 6.62; as for `Cc1nc(N)nc(-c2cccnc2Nc2ccc(NC(=O)Nc3cccc(F)c3)nc2)n1` [Example 191, 1-(5-(3-(4-Amino-6-Methyl-1,3,5-Triazin-2-yl)Pyridin-2-Ylamino)Pyridin-2-yl)-3-(3-Fluorophenyl)Urea], 5.67; as for `COC(=O)Nc1ccc(Nc2ncc(Cl)cc2-c2nc(C)nc(N)n2)cn1` [Example 194, Methyl 5-(3-(4-Amino-6-Methyl-1,3,5-Triazin-2-yl)-5-Chloropyridin-2-Ylamino)Pyridin-2-Ylcarbamate], less than 5.00. Still for that read-out and setting: with `COc1cccc(NCc2cnc(Nc3ccc(OC)nc3)c(-c3nc(C)nc4[nH]cnc34)c2)c1` [Example 78, 5-((3-methoxyphenylamino)methyl)-N-(6-methoxypyridin-3-yl)-3-(2-methyl-9H-purin-6-yl)pyridin-2-amine] the figure was 6.32; with `COc1ncc(Nc2ncc(C(C)(C)N3CCN(S(C)(=O)=O)CC3)cc2-c2nc(C)nc(N)n2)cc1F` [Example 280, 4-(2-(5-Fluoro-6-Methoxypyridin-3-Ylamino)-5-(2-(4-(Methylsulfonyl)Piperazin-1-yl)Propan-2-yl)Pyridin-3-yl)-6-Methyl-1,3,5-Triazin-2-Amine], 7.85.
